In PubChem BioAssay AID248 (DTP/NCI, 2004):
“And” between values parts separate entries of the source, which are not always exact repeats. Identical values can stand only once. Inconclusive results and toxic doses are left out. Rule as the data show it: active = T/C of 150% or more; inactive = T/C below 125%.

System: L1210 leukemia ip in BDF1 mice, survival T/C
Assay: NCI In Vivo Anticancer Drug Screen. Data for tumor model L1210 Leukemia (intraperitoneal) in B6D2F1 (BDF1) mice
Conditions: endpoint: mean survival time, higher = longer survival
Procedure, shortened: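 Transplantable tumor model; survival measured in treated vs vehicle control mice. Value = treated/control.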

[1] = dose: 100.0 mg/kg/injection, schedule: Q01DX009 (ip), vehicle: Klucel (hydroxypropylcellulose) (HPC)
[2] = dose: 200.0 mg/kg/injection, schedule: Q01DX009 (ip), vehicle: Klucel (hydroxypropylcellulose) (HPC)
[3] = dose: 400.0 mg/kg/injection, schedule: Q01DX009 (ip), vehicle: Klucel (hydroxypropylcellulose) (HPC)
[4] = dose: 100.0 mg/kg/injection, schedule: Q01DX001 (ip), vehicle: saline
[5] = dose: 200.0 mg/kg/injection, schedule: Q01DX001 (ip), vehicle: saline
[6] = dose: 400.0 mg/kg/injection, schedule: Q01DX001 (ip), vehicle: saline
[7] = dose: 100.0 mg/kg/injection, schedule: Q01DX009 (ip), vehicle: saline
[8] = dose: 200.0 mg/kg/injection, schedule: Q01DX009 (ip), vehicle: saline
[9] = dose: 50.0 mg/kg/injection, schedule: Q01DX009 (ip), vehicle: saline with Tween-80
[10] = dose: 100.0 mg/kg/injection, schedule: Q04DX003 (ip), vehicle: Klucel (hydroxypropylcellulose) (HPC)
[11] = dose: 200.0 mg/kg/injection, schedule: Q04DX003 (ip), vehicle: Klucel (hydroxypropylcellulose) (HPC)
[12] = dose: 100.0 mg/kg/injection, schedule: Q04DX003 (ip), vehicle: saline with Tween-80
[13] = dose: 200.0 mg/kg/injection, schedule: Q04DX003 (ip), vehicle: saline with Tween-80
[14] = dose: 400.0 mg/kg/injection, schedule: Q04DX003 (ip), vehicle: saline with Tween-80
[15] = dose: 400.0 mg/kg/injection, schedule: Q04DX003 (ip), vehicle: Klucel (hydroxypropylcellulose) (HPC)

Measured: T/C

c1ccc(C2(NC3=NCCO3)CCCCC2)cc1
inactive: dose: 10.0 mg/kg/injection, schedule: Q01DX009 (ip), vehicle: Klucel (hydroxypropylcellulose) (HPC) 101 % of control | dose: 20.0 mg/kg/injection, schedule: Q01DX009 (ip), vehicle: Klucel (hydroxypropylcellulose) (HPC) 97 % of control | dose: 40.0 mg/kg/injection, schedule: Q01DX009 (ip), vehicle: Klucel (hydroxypropylcellulose) (HPC) 101 % of control | dose: 75.0 mg/kg/injection, schedule: Q01DX009 (ip), vehicle: Klucel (hydroxypropylcellulose) (HPC) 107 % of control

O=C(c1ccco1)C1Cc2ccccc2C1=O (stereo unspecified)
inactive: [1] 95 % of control | dose: 100.0 mg/kg/injection, schedule: Q04DX003 (ip), vehicle: alcohol 109 % of control | [2] 94 % of control | dose: 200.0 mg/kg/injection, schedule: Q04DX003 (ip), vehicle: alcohol 104 % of control | [3] 97 % of control | dose: 400.0 mg/kg/injection, schedule: Q04DX003 (ip), vehicle: alcohol 103 % of control

CC1(C)C2CCC1(C)C(OC(=O)c1ccc([N+](=O)[O-])cc1)C2OC(=O)c1ccc([N+](=O)[O-])cc1 (stereo unspecified)
inactive: dose: 75.0 mg/kg/injection, schedule: Q01DX009 (ip), vehicle: saline 108 % of control | dose: 150.0 mg/kg/injection, schedule: Q01DX009 (ip), vehicle: saline 103 % of control | dose: 300.0 mg/kg/injection, schedule: Q01DX009 (ip), vehicle: saline 97 % of control

O=c1[nH]cnc2c1[nH]c(=S)n2C1OC(CO)C(O)C1O (stereo unspecified)
inactive: [4] 108 % of control | [5] 96 % of control | [6] 100 % of control

CCOP(=O)(OCC)C(C)OC (stereo unspecified)
inactive: [7] 95 % of control | [8] 93 % of control | dose: 400.0 mg/kg/injection, schedule: Q01DX009 (ip), vehicle: saline 104 % of control

O=C(C[n+]1ccccc1)N/N=C/c1cccc([N+](=O)[O-])c1
inactive: [9] 91 % of control

C#CC(=O)CCCCCCl
inactive: dose: 6.25 mg/kg/injection, schedule: Q01DX009 (sc), vehicle: olive oil, sesame oil, peanut oil 100 % of control | dose: 12.5 mg/kg/injection, schedule: Q01DX009 (sc), vehicle: olive oil, sesame oil, peanut oil 94 % of control | dose: 12.5 mg/kg/injection, schedule: Q04DX002 (sc), vehicle: olive oil, sesame oil, peanut oil 103 % of control | dose: 25.0 mg/kg/injection, schedule: Q01DX009 (sc), vehicle: olive oil, sesame oil, peanut oil 97 % of control | dose: 25.0 mg/kg/injection, schedule: Q04DX002 (sc), vehicle: olive oil, sesame oil, peanut oil 95 % of control

Clc1ccc(C2=CC(c3ccccc3)C3CC23)cc1 (stereo unspecified)
inactive: dose: 100.0 mg/kg/injection, schedule: Q01DX001 (ip), vehicle: saline with Tween-80 92 % of control | dose: 200.0 mg/kg/injection, schedule: Q01DX001 (ip), vehicle: saline with Tween-80 94 % of control | dose: 400.0 mg/kg/injection, schedule: Q01DX001 (ip), vehicle: saline with Tween-80 89 % of control

Cc1cnc2nc(N)[nH]c(=O)c2c1
inactive: dose: 100.0 mg/kg/injection, schedule: Q04DX003 (ip), vehicle: saline sonified 98 % of control | dose: 200.0 mg/kg/injection, schedule: Q04DX003 (ip), vehicle: saline sonified 95 % of control | dose: 400.0 mg/kg/injection, schedule: Q04DX003 (ip), vehicle: saline sonified 95 % of control

COc1ccc(CSC(=S)Nc2ccc(Cl)c(Cl)c2)cc1OC
inactive: dose: 37.5 mg/kg/injection, schedule: Q04DX003 (ip), vehicle: saline 101 % of control | dose: 75.0 mg/kg/injection, schedule: Q04DX003 (ip), vehicle: saline 93 % of control | dose: 150.0 mg/kg/injection, schedule: Q04DX003 (ip), vehicle: saline 101 % of control

Cn1c(=O)c(Br)c(N)c2ccccc21
inactive: dose: 100.0 mg/kg/injection, schedule: Q01DX001 (ip), vehicle: other 101 % of control | dose: 200.0 mg/kg/injection, schedule: Q01DX001 (ip), vehicle: other 101 % of control | dose: 400.0 mg/kg/injection, schedule: Q01DX001 (ip), vehicle: other 101 % of control

CCC1(/C(C)=C/C(C)C)C(=O)NC(=O)NC1=O
inactive: dose: 5.0 mg/kg/injection, schedule: Q01DX001 (ip), vehicle: saline 96 % of control | dose: 10.0 mg/kg/injection, schedule: Q01DX001 (ip), vehicle: saline 101 % of control

CCCCOP(=O)(OCCCC)Oc1ccc2ccccc2c1
inactive: dose: 50.0 mg/kg/injection, schedule: Q01DX009 (ip), vehicle: other 97 % of control and 88 % of control | dose: 100.0 mg/kg/injection, schedule: Q01DX009 (ip), vehicle: other 94 % of control | dose: 100.0 mg/kg/injection, schedule: Q04DX002 (ip), vehicle: other 94 % of control and 96 % of control | dose: 100.0 mg/kg/injection, schedule: Q04DX003 (ip), vehicle: carboxymethylcellulose (CMC) 102 % of control | dose: 200.0 mg/kg/injection, schedule: Q01DX009 (ip), vehicle: other 100 % of control and 102 % of control | dose: 200.0 mg/kg/injection, schedule: Q04DX002 (ip), vehicle: other 96 % of control and 92 % of control | dose: 200.0 mg/kg/injection, schedule: Q04DX003 (ip), vehicle: carboxymethylcellulose (CMC) 100 % of control | dose: 400.0 mg/kg/injection, schedule: Q04DX002 (ip), vehicle: other 94 % of control and 96 % of control | dose: 400.0 mg/kg/injection, schedule: Q04DX003 (ip), vehicle: carboxymethylcellulose (CMC) 97 % of control

Nc1ccccc1CSc1nc2nc[nH]c(=O)c2[nH]1
inactive: [10] 95 % of control | [11] 95 % of control

O=C(O)/C=C/S(=O)(=O)c1ccc(Cl)cc1
inactive: dose: 12.5 mg/kg/injection, schedule: Q04DX002 (ip), vehicle: Klucel (hydroxypropylcellulose) (HPC) 101 % of control | dose: 25.0 mg/kg/injection, schedule: Q01DX009 (ip), vehicle: Klucel (hydroxypropylcellulose) (HPC) 97 % of control | dose: 25.0 mg/kg/injection, schedule: Q04DX002 (ip), vehicle: Klucel (hydroxypropylcellulose) (HPC) 97 % of control | dose: 50.0 mg/kg/injection, schedule: Q01DX009 (ip), vehicle: Klucel (hydroxypropylcellulose) (HPC) 97 % of control | dose: 50.0 mg/kg/injection, schedule: Q04DX002 (ip), vehicle: Klucel (hydroxypropylcellulose) (HPC) 108 % of control | dose: 100.0 mg/kg/injection, schedule: Q04DX002 (ip), vehicle: Klucel (hydroxypropylcellulose) (HPC) 95 % of control

O=C(CS(=O)(=O)C1CCCCC1)C1CCCCC1
inactive: [12] 94 % of control | [13] 94 % of control | [14] 88 % of control

CCOC(=O)C1=C(C)NC(=O)NC1c1ccc(N(CCCl)CCCl)cc1 (stereo unspecified)
inactive: [1] 93 % of control | [10] 97 % of control | [2] 112 % of control | [11] 90 % of control | [3] 104 % of control | [15] 101 % of control

CS(=O)(=O)NCCOc1ccc(C(=O)O)cc1
inactive: [10] 96 % of control | [11] 101 % of control | [15] 95 % of control

N#Cc1ccc(OC(=O)c2ccc(N=C(N)N)cc2)cc1
inactive: [7] 94 % of control | dose: 100.0 mg/kg/injection, schedule: Q04DX003 (ip), vehicle: saline 96 % of control | [8] 91 % of control | dose: 200.0 mg/kg/injection, schedule: Q04DX003 (ip), vehicle: saline 93 % of control | dose: 400.0 mg/kg/injection, schedule: Q04DX003 (ip), vehicle: saline 88 % of control

Cc1cc2cc3cccc[n+]3cc2c2ccccc12
inactive: dose: 2.0 mg/kg/injection, schedule: Q01DX Z (ip), vehicle: carboxymethylcellulose (CMC) 101 % of control | dose: 4.0 mg/kg/injection, schedule: Q01DX Z (ip), vehicle: carboxymethylcellulose (CMC) 110 % of control | dose: 8.0 mg/kg/injection, schedule: Q01DX Z (ip), vehicle: carboxymethylcellulose (CMC) 113 % of control | dose: 16.0 mg/kg/injection, schedule: Q01DX Z (ip), vehicle: carboxymethylcellulose (CMC) 113 % of control

CCCCCCCCCCCCOC(N)=O
inactive: [9] 103 % of control | dose: 100.0 mg/kg/injection, schedule: Q01DX009 (ip), vehicle: saline with Tween-80 101 % of control | [12] 103 % of control | dose: 200.0 mg/kg/injection, schedule: Q01DX009 (ip), vehicle: saline with Tween-80 101 % of control | [13] 108 % of control | [14] 88 % of control

COc1ccc(-c2[nH]c3ccccc3c2-c2ccc(OC)cc2)cc1
inactive: [4] 89 % of control | [5] 89 % of control | [6] 95 % of control
